Results taken from patent publication US7259140B2, “Heparin-binding peptides and uses thereof” (Thomas Jefferson University, priority 2003, dated 2007).
Ends that are not written are not given here.

Key:
[1] = tested on: unfractionated heparin (thrombin-induced clot formation); assay: Thrombin neutralization assay: clotting time of citrated plasma in the presence of unfractionated heparin; assay type: biochemical, human; conditions: for Time for clot formation: UFH 0.5 IU/ml
Procedure: It was determined whether heparin-binding peptides of the invention can neutralize unfractionated heparin using the thrombin neutralization assay. The six peptides that were synthesized and used in this Example are: (ARKKAAKA)3VLVLVLVL (SEQ ID NO:5); (ARKKAAKA)(A16)(ARKKAAKA) (SEQ ID NO:30); (ARKKAAKA)4 (SEQ ID NO:31); (AKKARA)6 (SEQ ID NO:32); (ARKKAAKA)3(ARKKCAKA) (SEQ ID NO:33); and cyclized C(ARKKAAKA)4C (SEQ ID NO:34); Citrated plasma was pipetted into a glass tube. Thrombin was added, the tube was manually rotated, and clotting time was determined by observation of clot formation. Normal clotting time is 19-22 seconds.
As a control, to assess the effect of heparin on clot formation, unfractionated heparin was added to the plasma at 0.5 IU anti-thrombin activity/ml and then thrombin was added. Clotting time in the presence of heparin alone was greater than 3 minutes.
To test the effect of peptides, heparin and six peptides at the concentrations indicated in Table 4 were added to the plasma, the mixture was allowed to stand at room temperature for 1 minute, and thrombin was added. The time for the clot to form is indicated. Experiments were performed using plasma from three volunteers—A, B, and C.

platelets = assay: Platelet aggregation with aggregation-inducing agents; assay type: cell-based, human; conditions: 12 μg/ml; Lovenox 0.5 U/ml; collagen, ADP, ristocetin, epinephrine, SFFLRN, A23187
Procedure: Plasma from six volunteers was tested with various aggregation inducing agents, at several concentrations of each agent, and with six different peptides of the invention. The effect of heparin-binding peptides of the invention on platelet aggregation was determined using standard procedures as previously described. The six peptides which were synthesized and tested were: (ARKKAAKA)4 (SEQ ID NO:31), ARKKAAKA(A16)ARKKAAKA (SEQ ID NO:30), (ARKKAAKA)3ARKKCAKA (SEQ ID NO:33), (ARKKAAKA)3VLVLVLVL (SEQ ID NO:5), C(ARKKAAKA)4C (SEQ ID NO:34), and (AKKARA)6 (SEQ ID NO:32).
The aggregation-inducing agents tested were: collagen, adenosine diphosphate (ADP), ristocetin, epinephrine, the thrombin receptor peptide SFFLRN, and calcium ionophore A23187. Platelets were subjected to protamine, or to SEQ ID NOS:31, 33, 30, 5, 34, or 32 at 12 μg/ml, and Lovenox® at 0.5 U/ml. Platelet aggregation in response to agonists was monitored and percent aggregation was determined over a five minute interval.
The agonist was added after equilibration of the platelets for one minute.

[2] = tested on: anti-Factor Xa Activity of Unfractionated Heparin; assay: Anti-Factor Xa assay: neutralization of unfractionated heparin in citrate or plasma in vitro; assay type: biochemical, human; conditions: for Unfractionated Heparin Neutralized: UFH 0.7 U/ml
Procedure: The ability of peptides such as (ARKKAAKA)3VLVLVLVL (SEQ ID NO:5) to neutralize the anti-Factor Xa activity of UFH and LMWH in vitro was tested using the Stachrom Heparin kit (Diagnostica Stago), a standard hematology laboratory assay used to measure the anti-Factor Xa activity of heparin. The assay was performed using the low molecular weight heparin enoxaparin sodium (Lovenox®, Aventis Pharmaceuticals, Inc.), unfractionated heparin (UFH), or the non-heparin glycosaminoglycan danaparoid sodium (Orgaran®, Organon Inc., West Orange, N.J.) in 0.32% citrate or in plasma anticoagulated with 0.32% citrate. Enoxaparin is commonly used clinically as a low molecular weight heparin (LMWH). Danaparoid is commonly used clinically as a non-heparin glycosaminoglycan anticoagulant. Currently, the only FDA approved drug to target UFH is protamine, which is not effective in vivo against LMWH or a non-heparin glycosaminoglycan such as danaparoid. Buffer and ATIII are added to form the heparin/ATIII complex, peptide is added, then Factor Xa, reporter dye substrate for Factor Xa activity, and stop solution, and the dye concentration is read at 405 nm. The absorbance of the dye increases with increasing Factor Xa activity, and thus is inversely proportional to the heparin (anti-Factor Xa activity) concentration. Peptides were tested in plasma obtained from three volunteers (A, B, and C). Platelet function inhibitors PG12 and theophylline were added to the blood immediately upon collection. […]

[3] = Hemodynamic effects in rats without prior Lovenox; conditions: 2 mg per rat, no Lovenox
Procedure: Rats were sedated, and catheters were inserted into the femoral vein and femoral artery. The femoral artery catheter was hooked up to the computerized monitoring system, and injections were made through the femoral vein. Peptides were injected into rats without prior injection of Lovenox. Two or more rats (300-350 grams) were treated with 2 mg protamine or peptide.
At the times indicated in the figures, the following actions were taken: administration of saline to insure that the animal and intubations were stable; administration of test peptide or protamine alone; then administration of protamine.

In the case of “ARKKAAKAAAAAAAAAAAAAAAAAARKKAAKA [ARKKAAKA(A16)ARKKAAKA, reference compound]”, the “effectiveness in thrombin neutralization assay” value [1] is reported as “ineffective”, the “Time for clot formation” value ([1]; 6.0 μg peptide/0.1 ml, plasma B) is reported as 55.00 ± 4.08 s and the “Time for clot formation” value ([1]; 6.5 μg peptide/0.1 ml, plasma A) is reported as 76.33 ± 4.19 s. For the same sequence, the “Time for clot formation” value ([1]; 6.5 μg peptide/0.1 ml, plasma C) was 48.67 ± 7.72 s, the “Time for clot formation” value ([1]; 7.0 μg peptide/0.1 ml, plasma A) was 61.00 ± 2.94 s and the “Time for clot formation” value ([1]; 7.0 μg peptide/0.1 ml, plasma B) was 85.67 ± 3.30 s. The “Time for clot formation” value ([1]; 7.0 μg peptide/0.1 ml, plasma C) was 47.67 ± 3.77 s, the “Time for clot formation” value ([1]; 7.5 μg peptide/0.1 ml, plasma A) was 58.67 ± 1.89 s and the “Time for clot formation” value ([1]; 7.5 μg peptide/0.1 ml, plasma C) was 180.0 ± 0.00 s. The “effect on platelet aggregation” value (platelets) was “no significant inhibition or enhancement of aggregation”, the “Unfractionated Heparin Neutralized” value ([2]; 1 μg/ml Peptide, A Plasma) was 0.080 ± 0.050 U/ml and the “Unfractionated Heparin Neutralized” value ([2]; 1 μg/ml Peptide, B Plasma) was 0.0 U/ml. For the same sequence, the “Unfractionated Heparin Neutralized” value ([2]; 1 μg/ml Peptide, C Plasma) was 0.0 U/ml, the “Unfractionated Heparin Neutralized” value ([2]; 1 μg/ml Peptide, Citrate) was 0.040 ± 0.017 U/ml and the “Unfractionated Heparin Neutralized” value ([2]; 6 μg/ml Peptide, A Plasma) was 0.045 ± 0.029 U/ml. The “Unfractionated Heparin Neutralized” value ([2]; 6 μg/ml Peptide, B Plasma) was 0.005 ± 0.007 U/ml, the “Unfractionated Heparin Neutralized” value ([2]; 6 μg/ml Peptide, C Plasma) was 0.008 ± 0.012 U/ml and the “Unfractionated Heparin Neutralized” value ([2]; 6 μg/ml Peptide, Citrate) was 0.064 ± 0.020 U/ml. The “Unfractionated Heparin Neutralized” value ([2]; 12 μg/ml Peptide, A Plasma) was 0.026 ± 0.018 U/ml, the “Unfractionated Heparin Neutralized” value ([2]; 12 μg/ml Peptide, B Plasma) was 0.008 ± 0.012 U/ml and the “Unfractionated Heparin Neutralized” value ([2]; 12 μg/ml Peptide, C Plasma) was 0.0 U/ml. For the same sequence, the “Unfractionated Heparin Neutralized” value ([2]; 12 μg/ml Peptide, Citrate) was 0.047 ± 0.025 U/ml, the “Unfractionated Heparin Neutralized” value ([2]; 60 μg/ml Peptide, A Plasma) was 0.100 ± 0.021 U/ml and the “Unfractionated Heparin Neutralized” value ([2]; 60 μg/ml Peptide, B Plasma) was 0.084 ± 0.034 U/ml. The “Unfractionated Heparin Neutralized” value ([2]; 60 μg/ml Peptide, C Plasma) was 0.022 ± 0.017 U/ml, the “Unfractionated Heparin Neutralized” value ([2]; 60 μg/ml Peptide, Citrate) was 0.156 ± 0.046 U/ml and the “Unfractionated Heparin Neutralized” value ([2]; 120 μg/ml Peptide, A Plasma) was 0.112 ± 0.036 U/ml. The “Unfractionated Heparin Neutralized” value ([2]; 120 μg/ml Peptide, B Plasma) was 0.084 ± 0.018 U/ml, the “Unfractionated Heparin Neutralized” value ([2]; 120 μg/ml Peptide, C Plasma) was 0.090 ± 0.019 U/ml and the “Unfractionated Heparin Neutralized” value ([2]; 120 μg/ml Peptide, Citrate) was 0.199 ± 0.039 U/ml. For the same sequence, the “effect in the anti-Factor Xa assay for UFH” value ([2]; in both citrate and plasma) was “minimal effects” and the “effect on blood pressure” value [3] was “did not affect blood pressure”.
